Results taken from ChEMBL document CHEMBL3217615, “Novel 3,5-bis(arylidiene)-4-piperidone based monocarbonyl analogs of curcumin: anticancer activity evaluation and mode of action study” (2014).

Columns and labels:
Type in all cases: functional
COLO 205 [1] = experiment: Induction of apoptosis in human COLO205 cells assessed as early apoptosis cells level at 10 uM after 24 hrs by Annexin V/propidium iodide staining-based fluorescence microscopy
[2] = Growth inhibition of human HCT15 cells assessed as cell growth at 10^-8 M after 48 hrs by sulforhodamine B assay; conditions: HCT-15, 48 h; for growth at 0.01 µM: read-out: Activity; for TGI: read-out: pTGI (converted)
SR = experiment: Growth inhibition of human SR cells assessed as cell growth at 10^-7 M after 48 hrs by sulforhodamine B assay; conditions: read-out: Activity
SK-MEL-28 = experiment: Growth inhibition of human SK-MEL-28 cells after 48 hrs by sulforhodamine B assay; conditions: SK-MEL-28, 48 h; for CC50: read-out: LC50 (the source's name)
[3] = Growth inhibition of human SF539 cells assessed as cell growth at 10^-6 M after 48 hrs by sulforhodamine B assay; conditions: SF-539, 48 h, read-out: Activity
SK-MEL-2 [4] = experiment: Growth inhibition of human SK-MEL-2 cells assessed as cell growth at 10^-8 M after 48 hrs by sulforhodamine B assay; conditions: SK-MEL-2, 48 h; for growth at 0.01 µM: read-out: Activity; for TGI: read-out: pTGI (converted)
SNB-75 = experiment: Growth inhibition of human SNB75 cells assessed as cell growth at 10^-8 M after 48 hrs by sulforhodamine B assay; conditions: SNB-75, 48 h; for growth at 0.01 µM: read-out: Activity; for TGI: read-out: pTGI (converted)
NCI-H23 [5] = experiment: Growth inhibition of human NCI-H23 cells after 48 hrs by sulforhodamine B assay; conditions: NCI-H23, 48 h; for CC50: read-out: LC50 (the source's name)
[6] = Growth inhibition of human OVCAR5 cells assessed as cell growth at 10^-4 M after 48 hrs by sulforhodamine B assay; conditions: OVCAR-5, 48 h, read-out: Activity
NCI-H23 [7] = experiment: Growth inhibition of human NCI-H23 cells assessed as cell growth at 10^-8 M after 48 hrs by sulforhodamine B assay; conditions: NCI-H23, 48 h; for growth at 0.01 µM: read-out: Activity; for TGI: read-out: pTGI (converted)
KM12 [8] = experiment: Growth inhibition of human KM12 cells assessed as cell growth at 10^-7 M after 48 hrs by sulforhodamine B assay; conditions: KM12, 48 h, read-out: Activity
NCI-H322M = experiment: Growth inhibition of human NCI-H322M cells assessed as cell growth at 10^-7 M after 48 hrs by sulforhodamine B assay; conditions: read-out: Activity
[9] = Growth inhibition of human UACC62 cells after 48 hrs by sulforhodamine B assay; conditions: UACC-62, 48 h; for CC50: read-out: LC50 (the source's name)
MDA-MB-435 = experiment: Growth inhibition of human MDA-MB-435 cells assessed as cell growth at 10^-6 M after 48 hrs by sulforhodamine B assay; conditions: MDA-MB-435, 48 h, read-out: Activity
A549 = experiment: Growth inhibition of human A549/ATCC cells assessed as cell growth at 10^-8 M after 48 hrs by sulforhodamine B assay; conditions: A549, 48 h; for growth at 0.01 µM: read-out: Activity; for TGI: read-out: pTGI (converted)
[10] = Growth inhibition of human RXF393 cells after 48 hrs by sulforhodamine B assay; conditions: RXF 393, 48 h; for CC50: read-out: LC50 (the source's name)
786-0 = experiment: Growth inhibition of human 786-0 cells assessed as cell growth at 10^-4 M after 48 hrs by sulforhodamine B assay; conditions: 786-0, 48 h, read-out: Activity
SK-MEL-5 = experiment: Growth inhibition of human SK-MEL-5 cells after 48 hrs by sulforhodamine B assay; conditions: SK-MEL-5, 48 h; for CC50: read-out: LC50 (the source's name)
PC-3 = experiment: Growth inhibition of human PC3 cells assessed as cell growth at 10^-8 M after 48 hrs by sulforhodamine B assay; conditions: PC-3, 48 h; for growth at 0.01 µM: read-out: Activity; for TGI: read-out: pTGI (converted)
RPMI-8226 = experiment: Growth inhibition of human RPMI8226 cells assessed as cell growth at 10^-4 M after 48 hrs by sulforhodamine B assay; conditions: RPMI-8226, 48 h, read-out: Activity
[11] = Growth inhibition of human OVCAR4 cells assessed as cell growth at 10^-4 M after 48 hrs by sulforhodamine B assay; conditions: OVCAR-4, 48 h, read-out: Activity
KM12 [12] = experiment: Growth inhibition of human KM12 cells assessed as cell growth at 10^-4 M after 48 hrs by sulforhodamine B assay; conditions: KM12, 48 h, read-out: Activity
[13] = Growth inhibition of human MOLT4 cells after 48 hrs by sulforhodamine B assay; conditions: MOLT-4, 48 h; for CC50: read-out: LC50 (the source's name)
[14] = Growth inhibition of human HCT15 cells after 48 hrs by sulforhodamine B assay; conditions: HCT-15, 48 h; for CC50: read-out: LC50 (the source's name)
MCF7 = experiment: Growth inhibition of human MCF7 cells assessed as cell growth at 10^-7 M after 48 hrs by sulforhodamine B assay; conditions: MCF7, 48 h, read-out: Activity
[15] = Growth inhibition of human LOXIMVI cells assessed as cell growth at 10^-4 M after 48 hrs by sulforhodamine B assay; conditions: LOX IMVI, read-out: Activity
DU-145 = experiment: Growth inhibition of human DU145 cells assessed as cell growth at 10^-8 M after 48 hrs by sulforhodamine B assay; conditions: DU-145, 48 h; for growth at 0.01 µM: read-out: Activity; for TGI: read-out: pTGI (converted)
COLO 205 [16] = experiment: Induction of apoptosis in human COLO205 cells assessed as necrotic apoptosis cells level at 10 uM after 24 hrs by Annexin V/propidium iodide staining-based fluorescence microscopy
SK-MEL-2 [17] = experiment: Growth inhibition of human SK-MEL-2 cells assessed as cell growth at 10^-4 M after 48 hrs by sulforhodamine B assay; conditions: SK-MEL-2, 48 h, read-out: Activity
SK-MEL-2 [18] = experiment: Growth inhibition of human SK-MEL-2 cells assessed as cell growth at 10^-5 M after 48 hrs by sulforhodamine B assay; conditions: SK-MEL-2, 48 h, read-out: Activity
[19] = Growth inhibition of human LOXIMVI cells assessed as cell growth at 10^-8 M after 48 hrs by sulforhodamine B assay; conditions: LOX IMVI; for growth at 0.01 µM: read-out: Activity; for TGI: read-out: pTGI (converted)
[20] = Growth inhibition of human UACC257 cells assessed as cell growth at 10^-8 M after 48 hrs by sulforhodamine B assay; conditions: UACC-257, 48 h; for growth at 0.01 µM: read-out: Activity; for TGI: read-out: pTGI (converted)

## O=C1/C(=C/c2ccc(Cl)cc2Cl)CN(S(=O)(=O)c2ccccc2)C/C1=C\c1ccc(Cl)cc1Cl
COLO 205 [1]
  Activity: 52%
[2]
  GI50: 245 nM
  LC50: > 100000 nM
  growth at 0.01 µM: 95%
  TGI: 759 nM
SR
  growth at 0.1 µM: 70%
SK-MEL-28
  GI50: 4440 nM
  TGI: > 100000 nM
  CC50: > 100000 nM
[3]
  growth at 1 µM: 22%
SK-MEL-2 [4]
  GI50: 6030 nM
  LC50: > 100000 nM
  growth at 0.01 µM: 101%
  TGI: > 100000 nM
SNB-75
  GI50: 437 nM
  LC50: > 100000 nM
  growth at 0.01 µM: 79%
  TGI: 7240 nM
NCI-H23 [5]
  GI50: 423 nM
  TGI: 2710 nM
  CC50: > 100000 nM
[6]
  growth at 100 µM: -2%
NCI-H23 [7]
  GI50: 427 nM
  LC50: > 100000 nM
  growth at 0.01 µM: 103%
  TGI: 2690 nM
KM12 [8]
  growth at 0.1 µM: 105%
NCI-H322M
  growth at 0.1 µM: 123%
[9]
  GI50: 804 nM
  TGI: 2310 nM
  CC50: 5810 nM
MDA-MB-435
  growth at 1 µM: 50%
A549
  GI50: 275 nM
  LC50: > 100000 nM
  growth at 0.01 µM: 93%
  TGI: 891 nM
[10]
  GI50: 1060 nM
  TGI: 2420 nM
  CC50: 5540 nM
786-0
  growth at 100 µM: -93%
SK-MEL-5
  TGI: > 100000 nM
  CC50: > 100000 nM
PC-3
  GI50: 288 nM
  LC50: > 100000 nM
  growth at 0.01 µM: 100%
  TGI: 1020 nM
RPMI-8226
  growth at 100 µM: -35%
[11]
  growth at 100 µM: 15%
KM12 [12]
  growth at 100 µM: -56%
[13]
  GI50: 594 nM
  TGI: 9050 nM
  CC50: > 100000 nM
[14]
  GI50: 247 nM
  TGI: 759 nM
  CC50: > 100000 nM
MCF7
  growth at 0.1 µM: 84%
[15]
  growth at 100 µM: -48%
DU-145
  GI50: 447 nM
  LC50: > 100000 nM
  growth at 0.01 µM: 106%
  TGI: 18600 nM
COLO 205 [16]
  Activity: 1%
SK-MEL-2 [17]
  growth at 100 µM: 6%
SK-MEL-2 [18]
  growth at 10 µM: 36%
[19]
  GI50: 204 nM
  growth at 0.01 µM: 95%
  TGI: 513 nM
[20]
  GI50: 4070 nM
  LC50: > 100000 nM
  growth at 0.01 µM: 94%
  TGI: > 100000 nM

## Cc1ccc(S(=O)(=O)N2C/C(=C\c3cc(F)cc(F)c3)C(=O)/C(=C/c3cc(F)cc(F)c3)C2)cc1
COLO 205 [1]
  Activity: 30%
[2]
  GI50: 251 nM
  LC50: 30900 nM
  growth at 0.01 µM: 91%
  TGI: 1290 nM
SR
  growth at 0.1 µM: 14%
SK-MEL-28
  GI50: 473 nM
  TGI: 1790 nM
  CC50: 4820 nM
[3]
  growth at 1 µM: 61%
SK-MEL-2 [4]
  GI50: 2000 nM
  LC50: 14800 nM
  growth at 0.01 µM: 105%
  TGI: 4680 nM
SNB-75
  GI50: 2000 nM
  LC50: 26300 nM
  growth at 0.01 µM: 88%
  TGI: 5890 nM
NCI-H23 [5]
  GI50: 1750 nM
  TGI: 4990 nM
  CC50: 26800 nM
[6]
  growth at 100 µM: -90%
NCI-H23 [7]
  GI50: 1740 nM
  LC50: 26900 nM
  growth at 0.01 µM: 98%
  TGI: 5010 nM
KM12 [8]
  growth at 0.1 µM: 103%
NCI-H322M
  growth at 0.1 µM: 103%
[9]
  GI50: 212 nM
  TGI: 514 nM
  CC50: 1620 nM
MDA-MB-435
  growth at 1 µM: -18%
A549
  GI50: 2880 nM
  LC50: > 100000 nM
  growth at 0.01 µM: 94%
  TGI: 14800 nM
[10]
  GI50: 723 nM
  TGI: 2140 nM
  CC50: 5130 nM
786-0
  growth at 100 µM: -95%
SK-MEL-5
  GI50: 286 nM
  TGI: 1080 nM
  CC50: 3600 nM
PC-3
  GI50: 245 nM
  LC50: 9330 nM
  growth at 0.01 µM: 93%
  TGI: 794 nM
RPMI-8226
  growth at 100 µM: -50%
[11]
  growth at 100 µM: -81%
KM12 [12]
  growth at 100 µM: -88%
[13]
  GI50: 299 nM
  TGI: 2110 nM
  CC50: > 100000 nM
[14]
  GI50: 250 nM
  TGI: 1300 nM
  CC50: 30700 nM
MCF7
  growth at 0.1 µM: 62%
[15]
  growth at 100 µM: -98%
DU-145
  GI50: 1230 nM
  LC50: 7590 nM
  growth at 0.01 µM: 106%
  TGI: 3090 nM
COLO 205 [16]
  Activity: 3%
SK-MEL-2 [17]
  growth at 100 µM: -77%
SK-MEL-2 [18]
  growth at 10 µM: -44%
[19]
  GI50: 174 nM
  growth at 0.01 µM: 97%
  TGI: 339 nM
[19]; read-out: pLC50 (the source's name) (converted)
  CC50: 661 nM
[20]
  GI50: 933 nM
  LC50: 8510 nM
  growth at 0.01 µM: 93%
  TGI: 2880 nM
